These are literature values, as cited in patent US20070196481A1, “Sustained-release tablet composition” (priority 2002, published 2007).

The structures appear in SMILES notation. Where a name gives a salt, the structure may show the parent alone.

Regarding `CCCNC1CCc2nc(N)sc2C1` (centres unmarked) [pramipexole dihydrochloride], the solubility in water entry was “about 200 mg/ml”.
`CCOc1ccccc1OC(c1ccccc1)C1CNCCO1` (centres unmarked) [reboxetine mesylate]: the solubility in water result was “about 250 mg/ml”.
